{"source": "paper PMC4621027", "about": "“Hydroxyethylamine Based Phthalimides as New Class of Plasmepsin Hits: Design, Synthesis and Antimalarial Evaluation” (PLoS ONE, 2015)", "key": {"plasmepsin 2": {"target": "T1, plasmepsin 2 (Plasmodium falciparum, UniProt P46925)", "T1 construct": "preincubated at the assay pH for 3 minutes to allow conversion from the proenzyme to the mature enzyme form; made in house", "T1 sequence (P46925 125-453)": "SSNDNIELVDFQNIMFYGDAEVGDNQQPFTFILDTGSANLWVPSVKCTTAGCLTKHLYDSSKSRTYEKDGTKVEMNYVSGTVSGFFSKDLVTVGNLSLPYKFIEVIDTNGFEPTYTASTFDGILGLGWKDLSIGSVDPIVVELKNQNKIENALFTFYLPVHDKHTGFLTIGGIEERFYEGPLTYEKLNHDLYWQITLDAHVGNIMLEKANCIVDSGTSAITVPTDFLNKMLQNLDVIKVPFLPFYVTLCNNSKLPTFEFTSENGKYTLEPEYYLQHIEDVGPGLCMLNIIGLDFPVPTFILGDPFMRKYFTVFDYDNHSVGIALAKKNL", "experiment": "Inhibition of plasmepsin 2, chromogenic substrate cleavage assay", "assay_type": "biochemical", "settings": "tested at 10 to 50 μM", "procedure": "(§1) Synthetic compounds were dissolved in DMSO to make stock solutions at concentrations around 100 μM. Dilutions from these stocks were made to obtain solutions to use for studying inhibition of the plasmepsins 2 and 4 from P. falciparum. Assays of enzymatic activity were typically done using 50 micromolar substrate and 50 nanomolar enzyme at pH 4.5. The protein samples were preincubated at the assay pH for 3 minutes to allow conversion from the proenzyme to the mature enzyme form, then immediately mixed with inhibitor solutions and incubated for a further 5 minutes to permit the enzyme-inhibitor complex to form. Following this, the samples were mixed with samples of the substrate to yield a 50 μM substrate concentration in the final assay solution and immediately placed in a recording spectrophotometer to follow the reaction. The cleavage of the chromogenic substrate yields a shift in absorbance that can be quantified by the decrease in absorbance at 300 nm. Compounds were mixed with the enzymes at concentrations ranging from 10 to 50 μM range and the effect on enzyme activity studied in duplicate assays.\n(§2) A second inhibitor concentration was chosen that would yield approximately 30–35% inhibition and a third inhibitor concentration was chosen to yield approximately 65–70% inhibition. The three resulting curves of initial velocity versus substrate concentration were fit simultaneously to the competitive inhibition scheme; this yields values of Vmax, Km, and Ki.\n(§3) Plasmepsins, a family of aspartic proteases of malaria parasite, are known to participate in a wide variety of cellular processes essential for parasite survival. […] Similarly, plasmepsin 4 from P. falciparum can be prepared and activated. Catalytic activity of the plasmepsins can be studied by following the change in absorbance at 300 nm as cleavage occur between a Phe and a nitroPhe in the synthetic substrate, Lys-Pro-Ile-Glu-Phe-NO2Phe-Arg-Leu. The compounds listed in Tables 1, 2 and 3 were assayed for inhibition by preincubating with differnt concentrations of the compound with equal aliquots of either plasmepsin 2 or 4 followed by mixing with the assay substrate."}, "plasmepsin 4": {"target": "T2, plasmepsin 4 (Plasmodium falciparum, UniProt Q8IM16)", "T2 construct": "preincubated at the assay pH for 3 minutes to allow conversion from the proenzyme to the mature enzyme form; made in house", "T2 sequence (Q8IM16 122-449)": "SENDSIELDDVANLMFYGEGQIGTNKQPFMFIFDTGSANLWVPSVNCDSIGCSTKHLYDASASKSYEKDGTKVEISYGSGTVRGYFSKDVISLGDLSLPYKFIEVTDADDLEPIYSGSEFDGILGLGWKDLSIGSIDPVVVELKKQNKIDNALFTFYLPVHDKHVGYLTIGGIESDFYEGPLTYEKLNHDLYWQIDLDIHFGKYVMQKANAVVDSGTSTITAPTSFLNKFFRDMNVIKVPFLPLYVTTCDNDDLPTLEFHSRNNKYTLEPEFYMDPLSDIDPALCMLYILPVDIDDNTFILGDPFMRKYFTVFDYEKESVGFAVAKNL", "experiment": "Inhibition of plasmepsin 4, chromogenic substrate cleavage assay", "assay_type": "biochemical", "settings": "tested at 10 to 50 μM", "procedure": "as §1, §2, §3"}, "P. falciparum 3D7": {"test_system": "P. falciparum 3D7", "experiment": "SYBR green I-based fluorescence parasite growth assay, CQ sensitive strain", "assay_type": "cell-based, Plasmodium falciparum", "settings": "Plasmodium falciparum; CQ sensitive strain 3D7; 48 h incubation; read-out: IC50 values ± SE, growth of P. falciparum (3D7)", "procedure": "(§4) For compound screening, SYBR green I-based fluorescence assay was setup as described in literature. Sorbitol synchronized parasites were incubated under normal culture conditions at 2% hematocrit and 1% parasitemia in the absence or presence of increasing concentrations of the compounds. Chloroquine (CQ) was used as positive control, while 0.4% DMSO was used as the negative control.\n(§5) We have studied the antimalarial effect of all the listed molecules in […] culture conditions in order to identify a putative lead structure for pharmacological applications."}, "[1]": {"test_system": "CQ resistant strain (7GB) of P. falciparum", "experiment": "Antiplasmodial activity against CQ resistant strain", "assay_type": "cell-based", "settings": "Plasmodium falciparum; values in brackets; 48 h incubation; read-out: IC50 values ± SE, CQ resistant strain (7GB) (converted)", "procedure": "as §4, §5"}, "human erythrocytes": {"test_system": "human erythrocytes", "experiment": "In vitro hemolytic activity", "assay_type": "cell-based", "settings": "3.125 to 100 μg/mL, 37°C, 1 h", "procedure": "In vitro hemolytic activity of all synthesized compounds was performed as per reported protocol with slight modifications. In brief, human erythrocytes were collected from Rotary Blood Bank (New Delhi, India) and suspended in phosphate buffer saline (PBS). The suspension (2% hemotocrit) was incubated with different concentrations (3.125 to 100 μg/mL) of the entire compound series at 37°C for 1 h. After 1 h, erythrocytes were pelleted at 3000 g for 10 min (Remi, R-8C/BL) at 4°C. The supernatant was collected and OD450 was determined spectrophotometrically (Biotek, ELx800 UV spectrophotometer) using PBS as a negative control and Triton X-100 for completely lysing the cells. The percent hemolysis was calculated using the following formula: Percent hemolysis = […]. The percent hemolysis was plotted against concentration of compounds for determining the dose cytotoxic to erythrocytes."}, "MCF-7 cell line": {"test_system": "MCF-7 cell line", "experiment": "MTT-colorimetric cytotoxicity assay", "assay_type": "cell-based", "settings": "100, 25 and 6.25 μg mL^-1", "procedure": "Phthalimides were serially diluted in DMSO in a final concentration of 100, 25 and 6.25 μg mL^-1 and evaluated for their % cytotoxicity by using MTT-colorimetric assay on MCF-7 cell line. Cell lines were maintained in RPMI-1640 (Hi-Media, Mumbai) medium supplemented with heat inactivated FCS (10% v/v) and 100 U/mL of streptomycin and were cultured in a humidified 5% CO2 atmosphere at 37°C. 100 μL (~2×10^5) of cells were seeded into wells (per well) on a 96-well plate (Nunc, Maxi Sorp) and incubated for 16 h for adherence. After 16 h, media was aspirated from the wells and the cells were washed with RPMI-1640 without FCS. 75 μL of each compound and control was added to separate wells containing cell lines and incubated at 37°C in humidified 5% CO2 atmosphere for 4 h. After 4 h, media containing the compounds was replaced with 200 μL of normal RPMI-1640 and cells were further incubated for 48 h under same conditions. After 48 h media was replaced by 200 μL of MTT (3-(4, 5-dimethylthiazol-2-yl)-2, 5-diphenyltetrazolium bromide, 0.5 mg/mL of RPMI-1640) and further incubated for 2 h. The formazan crystals were formed and suspended in 100 μL iso-propanol containing 0.06 M HCl and 0.5% SDS. Aliquots were drawn from each well and colour intensity was measured spectrophotometrically in an ELISA plate reader (Biotek, ELx800) at 540 nm. Untreated cells were taken as control with 100% viability and cells without addition of MTT were used as blank. The relative cell viability (%) compared to control cells was calculated by [abs] sample/ [abs] control × 100."}, "[2]": {"test_system": "P. falciparum developmental stages (asexual)", "experiment": "Effect on P. falciparum developmental stages, Giemsa-stained smears", "assay_type": "cell-based, Plasmodium falciparum", "settings": "5 μM", "procedure": "Further, in order to assess the effect of potent molecule 5e on the parasite developmental stages (asexual), we treated tightly synchronized ring-stage parasite cultures with 5e at 5 μM concentration and counted the parasites at different developmental stages (rings, trophozoites and schizonts) in Giemsa-stained smears at three time points (36, 44, and 52 h after treatment). The control (untreated) parasite progressed through the first cell cycle (0–48 h), increased in size and density, developed into trophozoites and schizonts and subsequently formed viable merozoites. These merozoites were able to invade fresh RBCs and form new ring-stage parasites. (Fig 4)."}}, "note": "“Also recorded” adds a separate entry of the source.", "data": [{"compound": "CC(C)(C)OC(=O)N[C@H](Cc1ccccc1)[C@@H](O)CN1CCC(N2CCCCC2)CC1", "note": "[Compound 5e]", "values": [{"measurement": "inhibition of plasmepsin 2 (in words)", "setting": "plasmepsin 2", "value": "did not inhibit"}, {"measurement": "inhibition of plasmepsin 4 (in words)", "setting": "plasmepsin 4", "value": "did not inhibit"}, {"measurement": "IC50", "setting": "P. falciparum 3D7", "value": "1160 ± 40", "unit": "nM"}, {"measurement": "IC50", "setting": "[1]", "value": 2990, "unit": "nM"}, {"measurement": "hemolysis of human erythrocytes (in words)", "setting": "human erythrocytes", "value": "lower hemolysis"}, {"measurement": "cytotoxic effect on MCF7 cell line (in words)", "setting": "MCF-7 cell line", "value": "low cytotoxic effect; also recorded: less toxic"}, {"measurement": "total parasitemia compared with the control set", "setting": "[2]; at 52 h", "value": "lower total parasitemia"}, {"measurement": "effect on parasite developmental stages", "setting": "[2]; synchronized ring-stage cultures, 36, 44 and 52 h after treatment", "value": "developmental arrest in the transition from early to late schizont"}]}]}
